Measurements as given in patent US11696922B2, “Nanoparticle to target cancer” (Georgetown University, priority 2016, dated 2023).

System: gastrin mRNA
Experiment: Gastrin mRNA decrease by gastrin siRNA si286
Type: cell-based

GUGCUGAGGAUGAGAACUA (listed as RNA, chemistry not given here) [si286]
decrease of gastrin mRNA: 90%
